Columns and labels:
[1] = molecular target: Tau-tubulin kinase 1 (Homo sapiens) (UniProt Q5TCY1); assay: Inhibition of human TTBK1 (1 to 1321 residues) assessed as remaining enzyme activity at 50 uM after 30 mins by 33P-ATP filter-binding assay
[2] = molecular target: Serine/threonine-protein kinase 3 (Homo sapiens) (UniProt Q13188); assay: Inhibition of human MST2 (2 to 491 residues) assessed as remaining enzyme activity at 50 uM after 30 mins by 33P-ATP filter-binding assay
[3] = molecular target: Dual specificity mitogen-activated protein kinase kinase 2 (Homo sapiens) (UniProt P36507); assay: Inhibition of human MKK2 (2 to 400 residues) assessed as remaining enzyme activity at 50 uM after 30 mins by 33P-ATP filter-binding assay
[4] = molecular target: Rho-associated protein kinase 2 (Rattus norvegicus) (UniProt Q62868); assay: Inhibition of rat ROCK2 (2 to 543 residues) assessed as remaining enzyme activity at 50 uM after 30 mins by 33P-ATP filter-binding assay
[5] = molecular target: Casein kinase I isoform delta (Homo sapiens) (UniProt P48730); assay: Inhibition of human CK1delta (1 to 415 residues) assessed as remaining enzyme activity at 50 uM after 30 mins by 33P-ATP filter-binding assay
[6] = molecular target: Serine/threonine-protein kinase N2 (Homo sapiens) (UniProt Q16513); assay: Inhibition of human PRK2 (501 to 984 residues) assessed as remaining enzyme activity at 50 uM after 30 mins by 33P-ATP filter-binding assay
[7] = molecular target: Serine/threonine-protein kinase BRSK1 (Homo sapiens) (UniProt Q8TDC3); assay: Inhibition of human BRSK1 (2 to 778 residues) assessed as remaining enzyme activity at 50 uM after 30 mins by 33P-ATP filter-binding assay
Serine/threonine-protein kinase BRSK1 (Homo sapiens), sequence (Q8TDC3 whole entry, the tested form may be a part): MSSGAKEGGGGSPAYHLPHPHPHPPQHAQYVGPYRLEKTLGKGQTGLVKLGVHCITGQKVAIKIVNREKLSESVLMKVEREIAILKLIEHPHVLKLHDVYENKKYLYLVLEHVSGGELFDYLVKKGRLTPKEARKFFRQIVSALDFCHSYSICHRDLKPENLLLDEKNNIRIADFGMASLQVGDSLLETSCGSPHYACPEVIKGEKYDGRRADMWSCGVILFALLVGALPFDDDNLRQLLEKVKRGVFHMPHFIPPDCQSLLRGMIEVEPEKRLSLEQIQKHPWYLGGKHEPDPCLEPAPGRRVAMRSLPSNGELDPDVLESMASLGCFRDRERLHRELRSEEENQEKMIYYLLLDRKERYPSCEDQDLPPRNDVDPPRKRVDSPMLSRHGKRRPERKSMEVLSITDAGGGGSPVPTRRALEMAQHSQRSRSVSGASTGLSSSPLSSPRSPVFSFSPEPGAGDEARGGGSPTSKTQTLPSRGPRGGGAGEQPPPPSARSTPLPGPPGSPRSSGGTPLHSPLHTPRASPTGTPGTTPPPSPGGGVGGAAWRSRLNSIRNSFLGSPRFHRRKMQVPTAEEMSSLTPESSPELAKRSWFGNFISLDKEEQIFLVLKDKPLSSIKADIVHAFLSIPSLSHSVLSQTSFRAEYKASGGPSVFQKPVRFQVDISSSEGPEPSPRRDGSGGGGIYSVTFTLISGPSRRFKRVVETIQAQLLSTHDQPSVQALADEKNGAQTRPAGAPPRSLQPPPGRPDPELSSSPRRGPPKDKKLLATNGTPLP

[8] = molecular target: Calcium/calmodulin-dependent protein kinase kinase 2 (Homo sapiens) (UniProt Q96RR4); assay: Inhibition of human CAMKKbeta (1 to 541 residues) assessed as remaining enzyme activity at 50 uM after 30 mins by 33P-ATP filter-binding assay
[9] = molecular target: Dual specificity protein kinase TTK (Homo sapiens) (UniProt P33981); assay: Inhibition of human TTK (1 to 857 residues) assessed as remaining enzyme activity at 50 uM after 30 mins by 33P-ATP filter-binding assay
Dual specificity protein kinase TTK (Homo sapiens), sequence (P33981 whole entry, the tested form may be a part): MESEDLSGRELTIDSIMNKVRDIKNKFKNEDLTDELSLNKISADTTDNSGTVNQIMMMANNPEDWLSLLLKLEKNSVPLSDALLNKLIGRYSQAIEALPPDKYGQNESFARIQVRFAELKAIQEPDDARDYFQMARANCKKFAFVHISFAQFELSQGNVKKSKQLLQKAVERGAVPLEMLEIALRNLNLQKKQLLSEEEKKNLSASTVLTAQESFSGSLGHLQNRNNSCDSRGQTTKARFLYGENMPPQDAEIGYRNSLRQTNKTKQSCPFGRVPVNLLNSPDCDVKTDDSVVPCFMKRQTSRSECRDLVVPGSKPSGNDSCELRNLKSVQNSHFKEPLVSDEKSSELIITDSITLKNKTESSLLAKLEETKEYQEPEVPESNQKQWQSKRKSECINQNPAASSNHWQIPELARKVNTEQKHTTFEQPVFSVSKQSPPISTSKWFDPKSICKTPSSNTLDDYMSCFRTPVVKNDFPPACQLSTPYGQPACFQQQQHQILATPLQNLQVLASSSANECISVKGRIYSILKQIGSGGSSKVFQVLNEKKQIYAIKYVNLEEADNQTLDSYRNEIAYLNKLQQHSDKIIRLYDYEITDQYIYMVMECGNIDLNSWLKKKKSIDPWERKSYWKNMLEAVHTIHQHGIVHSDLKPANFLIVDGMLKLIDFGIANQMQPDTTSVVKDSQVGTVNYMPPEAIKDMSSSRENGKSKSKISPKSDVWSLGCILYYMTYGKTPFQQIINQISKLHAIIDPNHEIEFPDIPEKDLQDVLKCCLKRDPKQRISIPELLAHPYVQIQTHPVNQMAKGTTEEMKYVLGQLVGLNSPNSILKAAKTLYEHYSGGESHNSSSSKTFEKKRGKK

[10] = molecular target: Inhibitor of nuclear factor kappa-B kinase subunit epsilon (Homo sapiens) (UniProt Q14164); assay: Inhibition of human IKKe (1 to 716 residues) assessed as remaining enzyme activity at 50 uM after 30 mins by 33P-ATP filter-binding assay
PSN1 = assay: Cytotoxicity against human PSN1 cells assessed as cell growth inhibition after 48 hrs by MTT assay; format: functional; conditions: PSN1, 48 h
HL-60 = assay: Induction of apoptosis in human HL60 cells assessed as apoptotic cells at 1 uM (reference value: 1 %); format: functional
[11] = molecular target: Protein-tyrosine kinase 6 (Homo sapiens) (UniProt Q13882); assay: Inhibition of human BRK (1 to 451 residues) assessed as remaining enzyme activity at 50 uM after 30 mins by 33P-ATP filter-binding assay
Protein-tyrosine kinase 6 (Homo sapiens), sequence (Q13882 whole entry, looked up, the tested form may be a part): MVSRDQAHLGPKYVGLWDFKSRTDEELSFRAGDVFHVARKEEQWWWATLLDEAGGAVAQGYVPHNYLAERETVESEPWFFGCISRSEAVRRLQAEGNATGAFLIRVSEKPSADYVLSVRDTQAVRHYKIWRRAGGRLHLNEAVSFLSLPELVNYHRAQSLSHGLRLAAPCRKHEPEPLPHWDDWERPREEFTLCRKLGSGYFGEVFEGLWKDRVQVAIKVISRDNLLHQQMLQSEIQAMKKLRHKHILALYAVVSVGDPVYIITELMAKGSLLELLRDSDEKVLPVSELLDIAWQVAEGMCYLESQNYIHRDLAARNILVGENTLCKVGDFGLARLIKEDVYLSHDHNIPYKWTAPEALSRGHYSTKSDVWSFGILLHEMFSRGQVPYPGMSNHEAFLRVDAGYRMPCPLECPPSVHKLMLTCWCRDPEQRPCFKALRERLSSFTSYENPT

[12] = molecular target: Eukaryotic translation initiation factor 2-alpha kinase 3 (Homo sapiens) (UniProt Q9NZJ5); assay: Inhibition of human EIF2AK3 (536 to 1116 residues) assessed as remaining enzyme activity at 50 uM after 30 mins by 33P-ATP filter-binding assay
[13] = Cytotoxicity against HEK293 cells assessed as cell growth inhibition after 48 hrs by MTT assay; format: cell-based; conditions: human
[14] = molecular target: Mitogen-activated protein kinase kinase kinase 11 (Homo sapiens) (UniProt Q16584); assay: Inhibition of human MLK3 (96 to 386 residues) assessed as remaining enzyme activity at 50 uM after 30 mins by 33P-ATP filter-binding assay
[15] = molecular target: Serine/threonine-protein kinase WNK1 (Homo sapiens) (UniProt Q9H4A3); assay: Inhibition of human WNK1 (1 to 661 residues) assessed as remaining enzyme activity at 50 uM after 30 mins by 33P-ATP filter-binding assay
[16] = molecular target: Mitogen-activated protein kinase kinase kinase 7 (Homo sapiens) (UniProt O43318); assay: Inhibition of human TAK1 (1 to 303 residues) assessed as remaining enzyme activity at 50 uM after 30 mins by 33P-ATP filter-binding assay
Mitogen-activated protein kinase kinase kinase 7 (Homo sapiens), sequence (O43318 whole entry, the tested form may be a part): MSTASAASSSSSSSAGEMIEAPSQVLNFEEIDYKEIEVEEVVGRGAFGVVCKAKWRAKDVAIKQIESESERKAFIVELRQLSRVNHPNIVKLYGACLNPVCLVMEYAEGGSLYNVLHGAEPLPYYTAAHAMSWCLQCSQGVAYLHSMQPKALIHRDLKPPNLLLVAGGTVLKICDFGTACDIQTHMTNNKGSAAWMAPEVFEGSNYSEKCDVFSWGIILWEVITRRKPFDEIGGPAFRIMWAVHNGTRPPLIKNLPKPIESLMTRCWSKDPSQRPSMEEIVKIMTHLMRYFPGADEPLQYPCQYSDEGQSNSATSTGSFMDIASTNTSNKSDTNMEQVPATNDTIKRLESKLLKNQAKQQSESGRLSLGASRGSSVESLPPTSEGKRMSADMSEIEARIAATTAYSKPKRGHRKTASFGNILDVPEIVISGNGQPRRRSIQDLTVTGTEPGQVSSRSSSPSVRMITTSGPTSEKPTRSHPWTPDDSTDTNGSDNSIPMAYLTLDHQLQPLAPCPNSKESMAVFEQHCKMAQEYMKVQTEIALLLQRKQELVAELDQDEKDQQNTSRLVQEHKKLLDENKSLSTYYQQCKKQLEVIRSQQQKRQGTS

[17] = molecular target: SRSF protein kinase 1 (Homo sapiens) (UniProt Q96SB4); assay: Inhibition of human SRPK1 (2 to 654 residues) assessed as remaining enzyme activity at 50 uM after 30 mins by 33P-ATP filter-binding assay
[18] = molecular target: Homeodomain-interacting protein kinase 2 (Homo sapiens) (UniProt Q9H2X6); assay: Inhibition of human HIPK2 (165 to 564 residues) assessed as remaining enzyme activity at 50 uM after 30 mins by 33P-ATP filter-binding assay
[19] = Partition coefficient, logP of the compound in water/PBS buffer at pH 7.4 at 25 degC after 20 mins by shake flask method; format: physicochemical
CDK9/cyclin T1 = CDK9/cyclin T1 (Homo sapiens, UniProt P50750); assay: Inhibition of human Cdk9/T1 using YSPTSPSYSPTSPSYSPTSPKKK peptide as substrate after 30 mins by 33P-ATP filter-binding assay; format: protein-complex assay
[20] = molecular target: Tyrosine-protein kinase SYK (Homo sapiens) (UniProt P43405); assay: Inhibition of human SYK (1 to 635 residues) assessed as remaining enzyme activity at 50 uM after 30 mins by 33P-ATP filter-binding assay
[21] = Cell cycle arrest in human HL60 cells assessed as accumulation at G2 phase at 10 uM (reference value: 5 %); format: functional, cell-based; conditions: HL-60
[22] = molecular target: CDK2/Cyclin A2 (Homo sapiens) (UniProt P24941+P20248); assay: Inhibition of human Cdk2/cyclin A assessed as remaining enzyme activity at 50 uM after 30 mins by 33P-ATP filter-binding assay; format: protein-complex assay
[23] = molecular target: Serine/threonine-protein kinase SIK2 (Homo sapiens) (UniProt Q9H0K1); assay: Inhibition of human SIK2 (2 to 962 residues) assessed as remaining enzyme activity at 50 uM after 30 mins by 33P-ATP filter-binding assay
[24] = molecular target: RAC-beta serine/threonine-protein kinase (Homo sapiens) (UniProt P31751); assay: Inhibition of human PKBbeta assessed as remaining enzyme activity at 50 uM after 30 mins by 33P-ATP filter-binding assay
[25] = molecular target: Serine/threonine-protein kinase tousled-like 1 (Homo sapiens) (UniProt Q9UKI8); assay: Inhibition of human TLK1 (1 to 766 residues) assessed as remaining enzyme activity at 50 uM after 30 mins by 33P-ATP filter-binding assay
Serine/threonine-protein kinase tousled-like 1 (Homo sapiens), sequence (Q9UKI8 whole entry, the tested form may be a part): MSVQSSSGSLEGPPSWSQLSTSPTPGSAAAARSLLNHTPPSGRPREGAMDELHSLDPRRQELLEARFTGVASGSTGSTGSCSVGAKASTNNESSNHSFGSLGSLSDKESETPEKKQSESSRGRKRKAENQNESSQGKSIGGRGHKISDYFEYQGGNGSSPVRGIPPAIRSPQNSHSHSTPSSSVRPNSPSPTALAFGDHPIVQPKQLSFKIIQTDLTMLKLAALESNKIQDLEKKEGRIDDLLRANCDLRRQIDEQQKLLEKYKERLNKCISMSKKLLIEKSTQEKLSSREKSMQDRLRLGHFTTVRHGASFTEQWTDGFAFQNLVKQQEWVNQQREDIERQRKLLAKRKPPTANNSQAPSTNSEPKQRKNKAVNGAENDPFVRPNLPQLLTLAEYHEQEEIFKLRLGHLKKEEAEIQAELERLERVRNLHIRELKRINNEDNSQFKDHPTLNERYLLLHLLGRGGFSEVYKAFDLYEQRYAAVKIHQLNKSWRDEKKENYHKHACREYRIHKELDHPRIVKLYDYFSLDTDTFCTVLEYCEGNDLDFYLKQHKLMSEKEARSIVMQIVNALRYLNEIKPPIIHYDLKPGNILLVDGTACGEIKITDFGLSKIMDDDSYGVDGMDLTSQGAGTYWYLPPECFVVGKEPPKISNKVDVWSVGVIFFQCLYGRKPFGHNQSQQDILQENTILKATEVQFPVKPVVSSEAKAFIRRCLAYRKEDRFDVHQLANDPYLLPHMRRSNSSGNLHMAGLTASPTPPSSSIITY

[26] = molecular target: Protein kinase C zeta type (Homo sapiens) (UniProt Q05513); assay: Inhibition of human PKCzeta (2 to 592 residues) assessed as remaining enzyme activity at 50 uM after 30 mins by 33P-ATP filter-binding assay
[27] = molecular target: Ephrin type-A receptor 4 (Homo sapiens) (UniProt P54764); assay: Inhibition of human EPHA4 (580 to 986 residues) assessed as remaining enzyme activity at 50 uM after 30 mins by 33P-ATP filter-binding assay

Tau-tubulin kinase 1 (Homo sapiens), sequence (Q5TCY1 whole entry, the tested form may be a part): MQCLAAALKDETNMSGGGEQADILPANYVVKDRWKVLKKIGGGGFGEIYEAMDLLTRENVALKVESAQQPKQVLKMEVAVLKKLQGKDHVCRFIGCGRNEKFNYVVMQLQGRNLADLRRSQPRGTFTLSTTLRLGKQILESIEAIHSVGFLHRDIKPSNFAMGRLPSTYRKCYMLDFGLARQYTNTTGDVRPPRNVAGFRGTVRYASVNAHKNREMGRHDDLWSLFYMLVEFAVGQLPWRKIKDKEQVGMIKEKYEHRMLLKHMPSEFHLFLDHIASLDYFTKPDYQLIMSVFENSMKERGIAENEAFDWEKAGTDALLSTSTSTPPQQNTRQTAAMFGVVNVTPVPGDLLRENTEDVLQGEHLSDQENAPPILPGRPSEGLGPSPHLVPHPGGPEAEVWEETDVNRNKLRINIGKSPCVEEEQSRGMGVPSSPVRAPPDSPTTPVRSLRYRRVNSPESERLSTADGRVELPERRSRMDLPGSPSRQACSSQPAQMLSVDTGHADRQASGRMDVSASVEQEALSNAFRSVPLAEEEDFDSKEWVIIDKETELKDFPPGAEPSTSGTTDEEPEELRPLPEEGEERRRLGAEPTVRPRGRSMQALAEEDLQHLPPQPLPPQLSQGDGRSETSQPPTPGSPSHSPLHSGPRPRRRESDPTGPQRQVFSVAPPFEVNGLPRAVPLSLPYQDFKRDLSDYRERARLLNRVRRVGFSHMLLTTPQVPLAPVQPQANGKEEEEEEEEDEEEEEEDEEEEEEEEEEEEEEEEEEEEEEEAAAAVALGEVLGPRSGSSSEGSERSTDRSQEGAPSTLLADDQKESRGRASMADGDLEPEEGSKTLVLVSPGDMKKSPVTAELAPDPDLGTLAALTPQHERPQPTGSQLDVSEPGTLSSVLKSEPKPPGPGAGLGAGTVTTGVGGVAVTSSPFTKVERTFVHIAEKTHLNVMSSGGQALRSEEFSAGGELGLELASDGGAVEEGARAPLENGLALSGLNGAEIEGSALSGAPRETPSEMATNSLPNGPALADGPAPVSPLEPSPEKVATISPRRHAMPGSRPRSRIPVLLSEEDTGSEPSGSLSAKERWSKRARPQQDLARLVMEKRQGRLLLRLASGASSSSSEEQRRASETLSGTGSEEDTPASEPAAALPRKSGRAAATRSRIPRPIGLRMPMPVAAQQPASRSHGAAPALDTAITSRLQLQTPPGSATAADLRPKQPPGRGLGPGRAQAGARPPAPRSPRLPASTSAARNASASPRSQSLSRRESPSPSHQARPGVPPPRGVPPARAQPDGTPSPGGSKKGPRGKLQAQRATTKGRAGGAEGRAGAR

Question: With `Cc1cc(=O)c2c(O)cc(O)c([C@H]3CCN(C)C[C@H]3O)c2o1` [ROHITUKINE] as the compound, how does the Activity [1] read?
Answer: 82%

Question: And the Activity [2]?
Answer: 46%

Question: What about the Activity [3] of the same compound?
Answer: 44%

Question: And the Activity [4]?
Answer: 64%

Question: What about the Activity [5] of the same compound?
Answer: 78%

Question: And the Activity [6]?
Answer: 42%

Question: And the Activity [7]?
Answer: 36%

Question: And the Activity [8]?
Answer: 18%

Question: What about the Activity [9] of the same compound?
Answer: 56%

Question: What about the Activity [10] of the same compound?
Answer: 69%

Question: And the GI50 (PSN1)?
Answer: 23 µM

Question: And the Activity (HL-60)?
Answer: 1%

Question: And the Activity [11]?
Answer: 93%

Question: And the Activity [12]?
Answer: 82%

Question: And the GI50 at 48 h [13]?
Answer: > 50 µM

Question: What about the Activity [14] of the same compound?
Answer: 58%

Question: What about the Activity [15] of the same compound?
Answer: 100%

Question: And the Activity [16]?
Answer: 70%

Question: And the Activity [17]?
Answer: 40%

Question: What about the Activity [18] of the same compound?
Answer: 76%

Question: What about the logD at 20 min [19] of the same compound?
Answer: -0.55

Question: And the IC50 (CDK9/cyclin T1)?
Answer: 0.3 µM

Question: What about the Activity [20] of the same compound?
Answer: 109%

Question: And the Activity [21]?
Answer: 4%

Question: What about the Activity [22] of the same compound?
Answer: 16%

Question: What about the Activity [23] of the same compound?
Answer: 19%

Question: What about the Activity [24] of the same compound?
Answer: 80%

Question: What about the Activity [25] of the same compound?
Answer: 109%

Question: And the Activity [26]?
Answer: 118%

Question: And the Activity [27]?
Answer: 53%
